Source: article PMC6902473 (Clinical Epigenetics, 2019)
Values joined by “and” are separate entries in the source; they are usually repeats but may differ in a detail not shown here. Equal entries are not always repeated.

How the values were obtained:
[1] = human, in vivo
Experimental: The study design was a single-arm, multi-center phase I/II clinical trial with two phases: Phase I was an intra-patient dose (de)escalation period until an individual maximum tolerable dose (MTD) was reached. […] A DLT was defined as grade 3 or 4 toxicity according to a selection of Common Toxicity Criteria for Adverse Events (CTCAE) (V4.0) and judged by the investigator as definitely, probably, or possibly related to the study drug. The starting dose was 180 mg/m^2/day and the minimum dose was 30 mg/m^2/day. A dosing nomogram was used to minimize interpatient dosing variability.
De-escalation was done in steps of 50 mg/m^2/day until a minimal dose of 30 mg/m^2/day was reached. […] Upon reaching her or his individual MTD, a patient seamlessly entered phase II of the protocol.
(§1) During phase II, disease assessments were performed every 3 months, starting 3 months after reaching individual MTD. If treatment was discontinued for any reason during phase II, treatment was prolonged thereafter to provide a minimal treatment window of 3 months before measuring response. Patients without progressive disease continued the therapy at their individual MTD until disease progression (but no longer than 9 months). In case of clinical benefit, treatment could be continued on an individual basis at the discretion of the investigator. Toxicities were graded according CTCAE V4.0.
(§2) The primary end point was to determine a safe dose recommendation (SDR), defined as the highest dose with a DLT in no more than 1/50 patients.
The DLT associated with the starting dose was to be continuously monitored using a Bayesian criterion with a non-informative prior and a binomial-beta model for the DLT rate r. […] This decision process was repeated, i.e., it was applied to the lowered starting dose in an analogous way.
All adverse events were summarized, using MedDRA preferred terms.

[2] = daily and continuous dosing; cited from earlier work
[3] = test system: relapsed or therapy-refractory solid tumors (including brain tumors), lymphoma, or leukemia; experiment: Phase II tumor response and survival at individual MTD (RECIST version 1.1)
Experimental: as §1, §2
Pretreatment evaluations included medical history, physical examination, ECG, ß-hCG in urine pregnancy test (if applicable), and complete blood count including differential, serum electrolytes liver, and renal function tests. Tumor markers were determined if appropriate. During phase I and the first 3 months of phase II (until the first response evaluation), history, physical examination, and laboratory studies were obtained weekly. If patients continued treatment beyond the first response evaluation in phase II (i.e., not showing PD), evaluations were performed every 2 weeks. After end of treatment, patients were followed-up for 3 months according the same scheme. In addition, an ECG was performed during phase I on day 8, 15, and at the time of reaching the individual MTD. Disease evaluations were performed at baseline, after 3 months of treatment at individual MTD, and every 3 months thereafter, using MRI (solid tumors, brain tumors, lymphomas), MIBG scan (neuroblastoma), or bone marrow evaluation (leukemia). Responses were reported using RECIST version 1.1 (solid tumors, brain tumors, lymphomas) [42–44] or the International Neuroblastoma Response Criteria (INRC) (neuroblastoma) [45], by central review. Bone marrow aspirates were evaluated in a central lab together with peripheral blood differential blood counts.
Standard methods for survival analysis (e.g., Kaplan-Meier estimates of the survival curves, Greenwood’s formula for estimating the standard error of event rates) were used for the analysis of time-to-event endpoints. […] Efficacy analysis included all patients who had completed the escalation/de-escalation scheme and started with the individual therapy at the MTD.
The AUCs were calculated by mixed log-linear model. Following exploratory aims to predict progression free survival (PFS) and overall survival (OS), an optimal cutpoint in the continuous PK parameter distributions of Cmax and AUC/D was determined by the minimum p value approach based on the log-rank test [51]. Graphical and statistical analysis was performed with Graphpad Prism 7.0 (Graphpad Software Inc., La Jolla, CA, USA), Kinetica 5.0 (Thermo Fisher Scientific, Waltham, MA, USA), and the R software/environment version 3.5.1 (R Foundation for Statistical Computing, Vienna, Austria).

[4] = single patient: High grade glioma, highest methylation score for glioblastoma IDH wt, (NC) not censored
[5] = single patient: High grade glioma, methylation profile pilocytic astrocytoma, BRAF (p.V600E), (C) censored
[6] = single patient: Medulloblastoma, (C) censored
[7] = single patient: SETTLE tumor, (C) censored

O=C(CCCCCCC(=O)Nc1ccccc1)NO [vorinostat]
Patients with all causalities AE: AE [1]: 49 (98) No. (%) | Patients with all causalities AE: AE leading to dose reduction or temporary treatment discontinuation [1]: 38 (76) No. (%) | Patients with all causalities AE: AE leading to treatment discontinuation [1]: 9 (18) No. (%) | Patients with all causalities AE: SAEs [1]: 19 (38) No. (%) | Patients with all causalities AE: Severe AEs (CTCAE grade 3/4) [1]: 48 (96) No. (%) | Patients with treatment related AE: Alanine aminotransferase increased [1]: 2 (4.0) Patients (%) | Patients with treatment related AE: Alopecia [1]: 9 (18.0) Patients (%) | Patients with treatment related AE: Anemia [1]: 8 (16.0) Patients (%) | Patients with treatment related AE: Blood creatinine increased [1]: 5 (10.0) Patients (%) | Patients with treatment related AE: Blood lactate dehydrogenase increased [1]: 4 (8.0) Patients (%) | Patients with treatment related AE: Constipation [1]: 4 (8.0) Patients (%) | Patients with treatment related AE: Cough [1]: 3 (6.0) Patients (%) | Patients with treatment related AE: Decreased appetite [1]: 5 (10.0) Patients (%) | Patients with treatment related AE: Diarrhea [1]: 11 (22.0) Patients (%) | Patients with treatment related AE: Dry skin [1]: 4 (8.0) Patients (%) | Patients with treatment related AE: Fatigue [1]: 9 (18.0) Patients (%) | Patients with treatment related AE: Headache [1]: 5 (10.0) Patients (%) | Patients with treatment related AE: Nausea [1]: 11 (22.0) Patients (%) | Patients with treatment related AE: Platelet count decreased [1]: 6 (12.0) Patients (%) | Patients with treatment related AE: Pyrexia [1]: 3 (6.0) Patients (%) | Patients with treatment related AE: Vomiting [1]: 8 (16.0) Patients (%) | Patients with treatment related AE: Weight decreased [1]: 5 (10.0) Patients (%) | Patients with treatment related AE: White blood cell decreased [1]: 1 (2.0) Patients (%) | Total of patients with treatment related AE: Alanine aminotransferase increased [1]: 4 (8.0, 2.2 - 19.2) Patients (%, 95% CIs) | Total of patients with treatment related AE: Alopecia [1]: 9 (18.0, 8.6 - 31.4) Patients (%, 95% CIs) | Total of patients with treatment related AE: Blood creatinine increased [1]: 5 (10.0, 3.3 - 21.8) Patients (%, 95% CIs) | Total of patients with treatment related AE: Blood lactate dehydrogenase increased [1]: 4 (8.0, 2.2 - 19.2) Patients (%, 95% CIs) | Total of patients with treatment related AE: Constipation [1]: 4 (8.0, 2.2 - 19.2) Patients (%, 95% CIs) | Total of patients with treatment related AE: Decreased appetite [1]: 7 (14.0, 5.8 - 26.7) Patients (%, 95% CIs) | Total of patients with treatment related AE: Headache [1]: 6 (12.0, 4.5 - 24.3) Patients (%, 95% CIs) | Total of patients with treatment related AE: Weight decreased [1]: 8 (16.0, 7.2 - 29.1) Patients (%, 95% CIs) | Total of patients with treatment related AE: White blood cell decreased [1]: 9 (18.0, 8.6 - 31.4 ) Patients (%, 95% CIs) | Total sum of DLTs: Abdominal pain [1]: 1 | Total sum of DLTs: Abdominal pain upper [1]: 2 | Total sum of DLTs: Aggression [1]: 1 | Total sum of DLTs: Alanine aminotransferase increased [1]: 3 | Total sum of DLTs: Anemia [1]: 2 | Total sum of DLTs: Apathy [1]: 1 | Total sum of DLTs: Decreased appetite [1]: 3 | Total sum of DLTs: Fatigue [1]: 7 | Total sum of DLTs: Febrile infection [1]: 2 | Total sum of DLTs: Hypermagnesemia [1]: 3 | Total sum of DLTs: Hypokalemia [1]: 1 | Total sum of DLTs: Loss of personal independence in daily activities [1]: 1 | Total sum of DLTs: Vomiting [1]: 2 | Total sum of DLTs: Weight decreased [1]: 2 | Total sum of DLTs: White blood cell decreased [1]: 11 | pediatric recommended phase 2 dose [2]: 230 mg/m^2/day | Best ORR (CR + PR + SD) ([3]; Efficacy population (n = 27)): 6 (22.2, 8.6–42.3) No. (%, 95% CI) | Best RR (CR + PR) ([3]; Efficacy population (n = 27)): 4 (14.8, 4.2–33.7) No. (%, 95% CI) | Median OS (95% CI) ([3]; Efficacy population (n = 27)): 22.4 months and 22.4 (6.3 - --) months | Median PFS (95% CI) ([3]; Efficacy population (n = 27)): 5.3 (4.6–5.9) months | Median response duration ([3]; Efficacy population (n = 27)): 19.1 months | best overall response rate (combining PR and SD, no CR observed) ([3]; Efficacy population (n = 27)): 22% | Best ORR (CR + PR + SD) ([3]; Safety population (n = 50)): 6 (12.0, 4.5–24.3) No. (%, 95% CI) | Best RR (CR + PR) ([3]; Safety population (n = 50)): 4 (8.0, 2.2–19.2) No. (%, 95% CI) | Median OS (95% CI) ([3]; Safety population (n = 50)): 6.1 (4.0–10.4) months | Median PFS (95% CI) ([3]; Safety population (n = 50)): 4.6 (3.7–5.3) months | Median response duration ([3]; Safety population (n = 50)): 19.1 months | patients with partial response (PR) ([3]; first response evaluation, after 3-month treatment at individual MTD, efficacy population): 3/27 | OS [3, 4]: 750 (NC) Days | PFS [3, 4]: 441 (NC) Days | OS [3, 5]: 1352 (C) Days | PFS [3, 5]: 385 (C) Days | PFS ([3]; single patient: High grade glioma, no molecular data, last dose level 280 mg/m^2/d, (C) censored): 499 (C) Days | OS ([3]; single patient: High grade glioma, no molecular data, last dose level 280 mg/m^2/d, (NC) not censored): 682 (NC) Days | OS [3, 6]: 871 (C) Days | PFS [3, 6]: 422 (C) Days | OS [3, 7]: 1190 (C) Days | PFS [3, 7]: 456 (C) Days
